Experiments:
[1] = test system: mitochondrial outer membrane permeabilization (MOMP); test: Mitochondrial profiling assay (MOMP); type: cell-based; details: mitochondrial profiling assay (unpublished data)
[2] = molecular target: Bcl-XL/BIM heterodimer in SKBR3 cells (Homo sapiens, UniProt Q07817); test: Near-infrared imaging of HSBXB binding in paraformaldehyde fixed cells incubated with ABT-263; type: cell-based; details: different concentrations of ABT-263, FIG. 17
Excerpt: IRDye 800CW goat anti-mouse antibody was used for detecting the heterodimer specific mouse monoclonal antibody and IRDye 800CW Goat anti-rabbit antibody was used to detect the commercial Bcl-XL rabbit monoclonal antibody. […] The detection system uses near-infrared (IR) fluorophores (670-1100 nm) that have a distinct advantage over visible dyes, in that very low background fluorescence at longer wavelengths provides an excellent signal-to-noise ratio. […] In this system antibodies labeled with IR dyes at different wavelengths are used for detection of multiple targets. The imager simultaneously detects two distinct wavelengths. A scanning optical assembly carries two laser diodes that generate excitation light at 680 and 780 nm, as well as two avalanche photodiodes, which detect emitted fluorescence at 720 and 820 nm. […] IRDye 800CW goat anti-mouse antibody was used for detecting the heterodimer specific mouse monoclonal antibody and IRDye 800CW Goat anti-rabbit antibody was used to detect the commercial Bcl-XL rabbit monoclonal antibody.

[3] = molecular target: Bcl-XL/BIM-BH3 heterodimer (Homo sapiens, UniProt Q07817); test: ELISA: inhibition of HSBXB binding to non-covalent Bcl-XL-GST/BIM-BH3 heterodimer by ABT-263; details: heterodimers formed with BIM peptide on Glutathione-coated ELISA plates; compound added after peptides and before monoclonal antibody; FIG. 15
Protocol: The compound was added to the ELISA plates after addition of peptides and before adding the monoclonal antibody. The Bib BH3 domain peptide was added as a negative control.
ABT-263 disrupts Bcl-2/Bcl-xL interactions with pro-death proteins (e.g., Bim), leading to the initiation of apoptosis within 2 hours post treatment (Tse et al., 2008).

[4] = molecular target: Bcl-xL/Bim heterodimer in JEKO-1 cells (Homo sapiens, UniProt Q07817); test: Flow cytometry (FACS), intracellular staining with HSBXB antibody; type: cell-based; details: 10 uM, 3 hours on ice, clone 32 at 10 ug/ml, FIG. 18
Excerpt: As a positive control we pretreated with the Bim BH3 peptide at a concentration that achieve saturated binding to the endogenous Bcl-XL. […] To enhance staining and to establish a positive control we added saturating amount of the Bim BH3 peptide to partially lysed cells. As a negative control we pretreated with BH3 mimetic compound, ABT 263 to displace Bim from Bcl-xL. In this experiment 5×10e6 JEKO 1 cells were suspended in Newmeyer buffer (Ryan et al Proc Natl Acad Sci USA 2010; 107:12895-900), digitonin (Sigma-Aldrich, St Louis Mo.) and treated with 100 uM Bim BH3 peptide; or ABT263 compound at 10 uM; or not treated. Cells were incubated on ice for 3 hours, and then washed and treated with clone 32 at 10 ug/ml for 20 minutes, washed again and stained with secondary goat anti-mouse IgG alexa-488. An IgG-2A isotype control was also prepared and run in parallel. Samples are analyzed on a FACS Canto II (BD Biosciences, San Jose Calif.) using the BD FACS Diva software.

[5] = test system: Bcl-2/Bcl-xL interactions with pro-death proteins (e.g., Bim); details: Tse et al., 2008; cited from earlier work

Sequence of Bcl-XL/BIM-BH3 heterodimer (Q07817 whole entry, the tested form may be a part, one chain of several): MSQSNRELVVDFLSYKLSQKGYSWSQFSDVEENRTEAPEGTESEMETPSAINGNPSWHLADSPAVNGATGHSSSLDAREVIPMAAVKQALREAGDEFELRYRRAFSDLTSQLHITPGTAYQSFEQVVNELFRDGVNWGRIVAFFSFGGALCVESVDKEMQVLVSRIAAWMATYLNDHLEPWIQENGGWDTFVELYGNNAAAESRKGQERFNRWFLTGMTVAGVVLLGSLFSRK
Sequence of Bcl-xL/Bim heterodimer in JEKO-1 cells (Q07817 whole entry, one chain of several): as the sequence (Q07817 whole entry, the tested form may be a part, one chain of several) above
Sequence of Bcl-XL/BIM heterodimer in SKBR3 cells (Q07817 whole entry, one chain of several): as the sequence (Q07817 whole entry, the tested form may be a part, one chain of several) above

MOMP on displacement of Bim [1]: results in MOMP
SMILES: CC1(C)CCC(c2ccc(Cl)cc2)=C(CN2CCN(c3ccc(C(=O)NS(=O)(=O)c4ccc(N[C@H](CCN5CCOCC5)CSc5ccccc5)c(S(=O)(=O)C(F)(F)F)c4)cc3)CC2)C1 [ABT-263, Navitoclax]
displacement of Bcl-xL bound BIM BH3 peptide detected by HSBXB [2]: displacement of the Bcl-xL bound BIM BH3 peptide is detected
inhibition of heterodimer antibody signal [3]: dose-dependent inhibition of heterodimer antibody signal
displacement of Bim from Bcl-xL by flow cytometry using HSBXB antibody [4]: this displacement in measurable by flow cytometry
time to initiation of apoptosis post treatment [5]: ≤ 2 h

From patent US11656230B2, “Method for predicting cancer sensitivity” (Eutropics Pharmaceuticals, Inc., priority 2013, dated 2023)
